Data from ChEMBL document CHEMBL1138985, “Discovery of potent, selective, and orally bioavailable pyridone-based dipeptidyl peptidase-4 inhibitors” (Bioorg Med Chem Lett, 2006).
Blank lines part the entries; values can stand above or below the molecule they belong to.

Experiments:
[1] = biological target: Dipeptidyl peptidase 8 (Homo sapiens, UniProt Q6V1X1)
[2] = biological target: Dipeptidyl peptidase 9 (Homo sapiens, UniProt Q86TI2)
[3] = Bioavailability in rat at 1 mg/kg, iv or 2 mg/kg, po; type: ADME, organism-based; settings: in vivo
[4] = Plasma clearance in rat at 1 mg/kg, iv or 2 mg/kg, po; type: ADME, organism-based
[5] = Half life in rat at 1 mg/kg, iv or 2 mg/kg, po; type: ADME, organism-based; settings: in vivo
[6] = biological target: Dipeptidyl peptidase 2 (Homo sapiens, UniProt Q9UHL4); test: Inhibition of QPP
[7] = Bioavailability in rhesus monkey at 1 mg/kg, iv or 2 mg/kg, po; type: ADME, organism-based, Macaca mulatta; settings: in vivo
[8] = tested on: Mus musculus; test: Reduction of glucose excursion at 10 mg/kg, po in mouse by Oral Glucose Tolerance Test; type: functional; set-up: scale not given: the % may be the effect or the level left
[9] = Plasma clearance in rhesus monkey at 1 mg/kg, iv or 2 mg/kg, po; type: ADME, organism-based, Macaca mulatta
[10] = Plasma clearance in dog at 1 mg/kg, iv or 2 mg/kg, po; type: ADME, organism-based, Canis lupus familiaris
[11] = tested on: Mus musculus; test: Reduction of glucose excursion at 1 mg/kg, po in mouse by Oral Glucose Tolerance Test; type: functional; set-up: scale not given: the % may be the effect or the level left
[12] = Half life in rhesus monkey at 1 mg/kg, iv or 2 mg/kg, po; type: ADME, organism-based, Macaca mulatta; settings: in vivo
[13] = Bioavailability in dog at 1 mg/kg, iv or 2 mg/kg, po; type: ADME, organism-based, Canis lupus familiaris; settings: in vivo
[14] = Half life in dog at 1 mg/kg, iv or 2 mg/kg, po; type: ADME, organism-based, Canis lupus familiaris; settings: in vivo
[15] = biological target: Voltage-gated inwardly rectifying potassium channel KCNH2 (Homo sapiens, UniProt Q12809); test: Binding to human ERG potassium channel
Chain of Voltage-gated inwardly rectifying potassium channel KCNH2 (Q12809 whole entry): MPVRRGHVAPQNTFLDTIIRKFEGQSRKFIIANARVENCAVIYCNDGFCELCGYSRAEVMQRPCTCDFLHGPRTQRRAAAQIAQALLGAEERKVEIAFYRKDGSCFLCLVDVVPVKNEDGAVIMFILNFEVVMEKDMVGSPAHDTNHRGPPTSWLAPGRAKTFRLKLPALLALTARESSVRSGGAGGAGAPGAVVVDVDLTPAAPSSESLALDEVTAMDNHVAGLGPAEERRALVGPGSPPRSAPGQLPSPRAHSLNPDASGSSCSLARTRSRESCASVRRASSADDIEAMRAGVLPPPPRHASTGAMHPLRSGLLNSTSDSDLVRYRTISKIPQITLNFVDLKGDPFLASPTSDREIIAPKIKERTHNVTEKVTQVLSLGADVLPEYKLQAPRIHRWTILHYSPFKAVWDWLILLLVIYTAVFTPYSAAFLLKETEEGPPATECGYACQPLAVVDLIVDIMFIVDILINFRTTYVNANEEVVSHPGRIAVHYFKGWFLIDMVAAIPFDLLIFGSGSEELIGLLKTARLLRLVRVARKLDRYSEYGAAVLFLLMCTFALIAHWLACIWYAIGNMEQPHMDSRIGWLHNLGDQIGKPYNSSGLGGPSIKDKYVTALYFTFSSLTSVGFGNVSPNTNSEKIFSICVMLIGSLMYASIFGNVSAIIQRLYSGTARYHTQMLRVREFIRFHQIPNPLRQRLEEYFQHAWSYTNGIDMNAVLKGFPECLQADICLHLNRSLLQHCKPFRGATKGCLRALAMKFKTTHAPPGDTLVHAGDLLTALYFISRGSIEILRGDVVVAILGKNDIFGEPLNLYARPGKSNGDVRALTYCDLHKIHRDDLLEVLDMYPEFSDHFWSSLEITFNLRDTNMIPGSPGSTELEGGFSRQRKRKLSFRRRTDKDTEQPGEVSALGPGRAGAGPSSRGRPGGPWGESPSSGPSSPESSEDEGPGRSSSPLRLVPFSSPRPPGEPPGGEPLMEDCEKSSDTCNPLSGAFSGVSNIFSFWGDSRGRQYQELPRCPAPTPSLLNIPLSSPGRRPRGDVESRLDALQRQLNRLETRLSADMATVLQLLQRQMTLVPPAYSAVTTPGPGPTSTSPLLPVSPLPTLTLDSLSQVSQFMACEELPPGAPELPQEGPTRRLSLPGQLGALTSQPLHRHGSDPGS

Chain of Dipeptidyl peptidase 9 (Q86TI2 whole entry): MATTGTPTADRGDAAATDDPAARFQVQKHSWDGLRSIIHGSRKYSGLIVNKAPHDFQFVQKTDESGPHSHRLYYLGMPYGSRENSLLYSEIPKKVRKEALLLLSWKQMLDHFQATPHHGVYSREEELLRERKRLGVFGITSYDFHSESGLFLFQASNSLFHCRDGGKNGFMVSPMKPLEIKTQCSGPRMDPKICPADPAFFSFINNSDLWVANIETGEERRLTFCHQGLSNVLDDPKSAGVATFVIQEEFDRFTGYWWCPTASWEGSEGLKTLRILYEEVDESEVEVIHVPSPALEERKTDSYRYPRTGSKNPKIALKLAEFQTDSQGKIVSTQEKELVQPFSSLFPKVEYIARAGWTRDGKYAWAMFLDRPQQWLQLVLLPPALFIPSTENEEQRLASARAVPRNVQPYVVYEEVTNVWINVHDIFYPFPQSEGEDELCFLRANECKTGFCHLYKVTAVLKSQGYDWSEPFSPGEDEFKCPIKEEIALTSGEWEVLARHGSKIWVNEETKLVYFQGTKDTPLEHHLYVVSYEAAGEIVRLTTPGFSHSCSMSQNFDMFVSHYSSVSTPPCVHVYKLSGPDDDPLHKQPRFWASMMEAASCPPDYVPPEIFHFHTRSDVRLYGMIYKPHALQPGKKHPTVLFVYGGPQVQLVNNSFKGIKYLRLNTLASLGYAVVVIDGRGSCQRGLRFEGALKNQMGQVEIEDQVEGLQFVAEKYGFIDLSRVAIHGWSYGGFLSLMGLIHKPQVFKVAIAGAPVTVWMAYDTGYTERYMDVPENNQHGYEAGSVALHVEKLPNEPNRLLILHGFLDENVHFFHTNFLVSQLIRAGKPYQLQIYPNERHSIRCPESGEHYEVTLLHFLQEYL
Chain of Dipeptidyl peptidase 8 (Q6V1X1 whole entry): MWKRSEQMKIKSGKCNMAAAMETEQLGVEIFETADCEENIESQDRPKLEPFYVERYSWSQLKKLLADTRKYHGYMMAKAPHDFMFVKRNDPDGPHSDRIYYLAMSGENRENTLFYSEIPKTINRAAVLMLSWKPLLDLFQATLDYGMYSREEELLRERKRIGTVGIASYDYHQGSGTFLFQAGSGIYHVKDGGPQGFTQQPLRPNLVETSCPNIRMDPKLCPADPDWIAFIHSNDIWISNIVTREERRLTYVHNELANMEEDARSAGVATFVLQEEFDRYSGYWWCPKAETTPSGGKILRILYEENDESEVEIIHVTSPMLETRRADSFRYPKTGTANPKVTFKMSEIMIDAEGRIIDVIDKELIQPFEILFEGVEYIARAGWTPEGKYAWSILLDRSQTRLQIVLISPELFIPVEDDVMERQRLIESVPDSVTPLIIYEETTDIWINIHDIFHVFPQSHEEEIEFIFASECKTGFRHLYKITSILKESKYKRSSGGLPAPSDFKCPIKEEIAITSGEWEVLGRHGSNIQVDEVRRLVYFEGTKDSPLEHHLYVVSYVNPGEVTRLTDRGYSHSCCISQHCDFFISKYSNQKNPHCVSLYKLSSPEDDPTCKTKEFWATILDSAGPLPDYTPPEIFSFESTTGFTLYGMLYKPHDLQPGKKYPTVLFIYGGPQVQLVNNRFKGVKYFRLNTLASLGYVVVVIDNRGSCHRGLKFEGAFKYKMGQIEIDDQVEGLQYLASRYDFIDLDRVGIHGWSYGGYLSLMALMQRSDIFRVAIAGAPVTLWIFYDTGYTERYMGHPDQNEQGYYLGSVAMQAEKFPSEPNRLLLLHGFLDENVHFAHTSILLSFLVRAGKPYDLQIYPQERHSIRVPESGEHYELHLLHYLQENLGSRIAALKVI

IC50 [1]: > 100 µM
IC50 [2]: > 100 µM
SMILES: CCOC(=O)C(F)(F)n1cc(-c2ccc([C@H](C)[C@H](N)C(=O)N3CC[C@H](F)C3)cc2)ccc1=O

IC50 [1]: > 100 µM
IC50 [2]: > 100 µM
SMILES: C[C@@H](c1ccc(-c2ccc(=O)n(C)c2)cc1)[C@H](N)C(=O)N1CC(F)C1

IC50 [1]: > 100 µM
IC50 [2]: > 100 µM
SMILES: C[C@@H](c1ccc(-c2cc(Br)c(=O)n(C)c2)cc1)[C@H](N)C(=O)N1CC[C@H](F)C1

bioavailability [3]: 61%
clearance [4]: 11.2 mL/min/kg
IC50 [1]: > 100 µM
IC50 [2]: > 100 µM
half-life [5]: 1.1 h
SMILES: C[C@@H](c1ccc(-c2ccc(=O)n(C)c2F)cc1)[C@H](N)C(=O)N1CC[C@H](F)C1.O=C(O)C(F)(F)F

IC50 [2]: > 100 µM
SMILES: C[C@@H](c1ccc(-c2cc(F)c(=O)n(C)c2)cc1)[C@H](N)C(=O)N1CC[C@H](F)C1

IC50 [1]: > 100 µM
IC50 [2]: > 100 µM
SMILES: C[C@@H](c1ccc(-c2ccc(=O)n(CC3CC3)c2)cc1)[C@H](N)C(=O)N1CC[C@H](F)C1

IC50 [1]: > 100 µM
IC50 [2]: > 100 µM
SMILES: CCOC(=O)Cn1cc(-c2ccc([C@H](C)[C@H](N)C(=O)N3CC[C@H](F)C3)cc2)ccc1=O

IC50 [1]: > 100 µM
IC50 [2]: > 100 µM
SMILES: CCn1cc(-c2ccc([C@H](C)[C@H](N)C(=O)N3CC[C@H](F)C3)cc2)ccc1=O

bioavailability [3]: 3%
clearance [4]: 68.1 mL/min/kg
IC50 [6]: > 100 µM
IC50 [1]: > 100 µM
IC50 [2]: > 100 µM
half-life [5]: 2.6 h
SMILES: C[C@@H](c1ccc(-c2cn(C)c(=O)cc2CO)cc1)[C@H](N)C(=O)N1CC[C@H](F)C1.O=C(O)C(F)(F)F

bioavailability [7]: 50%
bioavailability [3]: 34%
clearance [9]: 6.7 mL/min/kg
clearance [4]: 7.7 mL/min/kg
clearance [10]: 4.7 mL/min/kg
half-life [12]: 3.9 h
bioavailability [13]: 95%
half-life [14]: 3.8 h
IC50 [1]: > 100 µM
IC50 [2]: > 100 µM
half-life [5]: 1.4 h
SMILES: C[C@@H](c1ccc(-c2ccc(=O)n(C)c2)cc1)[C@H](N)C(=O)N1CC[C@H](F)C1.O=C(O)C(F)(F)F
Activity [8]: 56%
Activity [11]: 33%

bioavailability [3]: 10%
clearance [4]: 35.8 mL/min/kg
IC50 [1]: > 100 µM
IC50 [2]: > 100 µM
half-life [5]: 1.9 h
SMILES: C[C@@H](c1ccc(-c2ccc(O)nc2)cc1)[C@H](N)C(=O)N1CC[C@H](F)C1.O=C(O)C(F)(F)F
IC50 [15]: 8.3 µM

The next lines start with the molecule.

SMILES: Cc1c(-c2ccc([C@H](C)[C@H](N)C(=O)N3CC[C@H](F)C3)cc2)ccc(=O)n1C
IC50 [1]: > 100 µM
IC50 [2]: > 100 µM

SMILES: CCOC(=O)Nc1c(-c2ccc([C@H](C)[C@H](N)C(=O)N3CC[C@H](F)C3)cc2)cn(C)c(=O)c1F
IC50 [1]: > 100 µM

SMILES: C[C@@H](c1ccc(-c2ccc(=O)n(-c3ccc(F)cc3)c2)cc1)[C@H](N)C(=O)N1CC[C@H](F)C1
IC50 [1]: > 100 µM
IC50 [2]: > 100 µM

SMILES: C[C@@H](c1ccc(-c2ccc(=O)n(C)c2)cc1)[C@H](N)C(=O)N1CCC(F)CC1
IC50 [1]: > 100 µM
IC50 [2]: > 100 µM

SMILES: C[C@@H](c1ccc(-c2ccc(=O)n(C)c2)cc1)[C@H](N)C(=O)N1CCSC1
IC50 [1]: > 100 µM
IC50 [2]: > 100 µM

SMILES: COc1cc(=O)n(C)cc1-c1ccc([C@H](C)[C@H](N)C(=O)N2CC[C@H](F)C2)cc1
IC50 [1]: > 100 µM
IC50 [2]: > 100 µM

SMILES: Cc1c(-c2ccc([C@H](C)[C@H](N)C(=O)N3CC[C@H](F)C3)cc2)cc(Br)c(=O)n1C
IC50 [1]: > 100 µM
IC50 [2]: > 100 µM

SMILES: C[C@@H](c1ccc(-c2ccc(=O)n(C)c2)cc1)[C@H](N)C(=O)N1CCC(F)(F)C1
IC50 [1]: > 100 µM
IC50 [2]: > 100 µM

SMILES: C[C@@H](c1ccc(-c2ccc(=O)n(C)c2)cc1)[C@H](N)C(=O)N1CCCC1
IC50 [1]: > 100 µM
IC50 [2]: > 100 µM

SMILES: C[C@@H](c1ccc(-c2cn(C)c(=O)c(Cl)c2F)cc1)[C@H](N)C(=O)N1CC[C@H](F)C1
IC50 [1]: > 100 µM
IC50 [2]: > 100 µM

SMILES: Cc1cc(=O)n(C)cc1-c1ccc([C@H](C)[C@H](N)C(=O)N2CC[C@H](F)C2)cc1
IC50 [1]: > 100 µM
IC50 [2]: > 100 µM

SMILES: C[C@@H](c1ccc(-c2cn(C)c(=O)cc2F)cc1)[C@H](N)C(=O)N1CC[C@H](F)C1
IC50 [1]: > 100 µM
IC50 [2]: > 100 µM
